Experimental findings from ChEMBL document CHEMBL1143316, “Japonicones A-D, bioactive dimeric sesquiterpenes from Inula japonica Thunb” (Bioorg Med Chem Lett, 2009) are described below.

Format in all cases: functional, cell-based
One test deals with A549. The test is described as follows: Cytotoxicity against human A549 cells by MTT assay.
Another test deals with CCRF-CEM. In words: Cytotoxicity against human CEM cells by MTT assay.
A further test deals with MDA-MB-435. In words: Cytotoxicity against human MDA-MB-435 cells by MTT assay.
A further test has as its system LoVo. The test is described as follows: Cytotoxicity against human LoVo cells by MTT assay.

In brackets after ≈: the same amount, converted by molar mass.

Turning to `C=C1C(=O)O[C@@H]2C[C@@H](C)[C@]34C[C@]5(C(=O)O[C@H]6C[C@@]7(C)C(=C[C@H]65)[C@H](C)CC[C@@H]7O)[C@H](C(C)=C3C[C@@H]12)[C@@H]4OC(C)=O` [JAPONICONE A], the IC50 in the test on A549 came out at 1.62 µg/mL (≈ 3.02 µM); in the test with CCRF-CEM it was 0.001 µg/mL (≈ 0.00186 µM); in the test on MDA-MB-435 it was 0.198 µg/mL (≈ 0.369 µM); in the test on LoVo it was 0.256 µg/mL (≈ 0.477 µM).
